Source: ChEMBL document CHEMBL1201862, “PubChem BioAssay data set” (2004)
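Results reflect a 48-hour exposure of cells in 96-well plates to compound at five concentrations. Here, GI50 denotes the concentration required for 50% inhibition of growth.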 Calls of active or inactive are those of the source. Rule as the data show it: active = GI50 up to about 1.1 µM and inactive = higher. Where a SMILES comes first, the peptide text is derived from it. The star is where a group is joined. Boc = CC(C)(C)OC(=O)*; OSu = O=C1CCC(=O)N1O*

How the values were obtained:
Experiment in all cases: NCI tumour cell line growth inhibition, 48 h
[1] = test system: UACC-62
[2] = test system: EKVX
[3] = test system: SNB-19
[4] = test system: MDA-MB-231
[5] = test system: CCRF-CEM
[6] = test system: SW-620
[7] = test system: MOLT-4
[8] = test system: MDA-MB-435
[9] = test system: NCI-H460
[10] = test system: Malme-3M
[11] = test system: U-251
[12] = test system: PC-3
[13] = test system: NCI-H23
[14] = test system: OVCAR-8
[15] = test system: SF-539
[16] = test system: MCF7
[17] = test system: KM12
[18] = test system: NCI-H522

Compound	GI50 [1]	GI50 [2]	GI50 [3]	GI50 [4]	GI50 [5]	GI50 [6]	GI50 [7]	GI50 [8]	GI50 [9]	GI50 [10]	GI50 [11]	GI50 [12]	GI50 [13]	GI50 [14]	GI50 [15]	GI50 [16]	GI50 [17]	GI50 [18]
COC(=O)C1=C(OC(=O)c2ccccc2)C(C(=O)OC)[C@]2(O)[C@@H](C(=O)OC)[C@H]1C[C@@H](c1ccccc1)[C@@H]2C(=O)OC (stereo not given in full)	11.6 µM (inactive)	34 µM (inactive)	10.7 µM (inactive)	15.7 µM (inactive)	0.716 µM (active)	5.12 µM (inactive)	3.64 µM (inactive)	2.45 µM (inactive)	9.68 µM (inactive)	13.5 µM (inactive)	5.24 µM (inactive)	4.82 µM (inactive)	6.32 µM (inactive)	6.11 µM (inactive)	2.2 µM (inactive)	3.01 µM (inactive)	8.63 µM (inactive)	
CCCCOC(=O)C1CN2C=CC=NC2=NC1(C(F)(F)F)C(F)(F)F (stereo not given)	> 100 µM (inactive)	72.6 µM (inactive)	> 100 µM (inactive)	> 100 µM (inactive)	> 100 µM (inactive)	> 100 µM (inactive)	> 100 µM (inactive)	> 100 µM (inactive)	> 100 µM (inactive)	> 100 µM (inactive)	> 100 µM (inactive)	> 100 µM (inactive)	> 100 µM (inactive)	> 100 µM (inactive)	> 100 µM (inactive)	> 100 µM (inactive)	> 100 µM (inactive)	
C[N+]1(CCCl)CC[N+](C)(CCCl)CC1 (stereo not given)	> 100 µM (inactive)	> 100 µM (inactive)	> 100 µM (inactive)	> 100 µM (inactive)	> 100 µM (inactive)	> 100 µM (inactive)	83.6 µM (inactive)	> 100 µM (inactive)	> 100 µM (inactive)	> 100 µM (inactive)	> 100 µM (inactive)	> 100 µM (inactive)	> 100 µM (inactive)	> 100 µM (inactive)	> 100 µM (inactive)	> 100 µM (inactive)	> 100 µM (inactive)	
Cc1nc2c(=O)n(C)ncc2[nH]1	> 100 µM (inactive)	> 100 µM (inactive)	> 100 µM (inactive)	> 100 µM (inactive)	> 100 µM (inactive)	> 100 µM (inactive)	> 100 µM (inactive)	> 100 µM (inactive)	> 100 µM (inactive)		> 100 µM (inactive)	> 100 µM (inactive)	> 100 µM (inactive)	> 100 µM (inactive)	> 100 µM (inactive)	> 100 µM (inactive)	> 100 µM (inactive)	
CC(C)(C)OC(=O)NC(Cc1ccc(O)cc1)C(=O)NC(CCCCN)C(=O)NC(Cc1ccc(O)cc1)C(=O)NC(CCCCN)C(=O)ON1C(=O)CCC1=O (stereo not given) (Boc-YKYK-OSu; configuration not given here)	> 100 µM (inactive)	> 100 µM (inactive)	> 100 µM (inactive)	> 100 µM (inactive)	> 100 µM (inactive)	> 100 µM (inactive)	> 100 µM (inactive)		> 100 µM (inactive)	> 100 µM (inactive)	> 100 µM (inactive)	> 100 µM (inactive)	> 100 µM (inactive)	> 100 µM (inactive)		> 100 µM (inactive)	> 100 µM (inactive)	
CC1=NN(c2cccc(Cl)c2)C(=N/c2nc3ccccc3s2)/C1=C\c1ccc(Cl)cc1		33.2 µM (inactive)		20.7 µM (inactive)	26.1 µM (inactive)	19.9 µM (inactive)	24.4 µM (inactive)		17.2 µM (inactive)		14.8 µM (inactive)	16.4 µM (inactive)	18.7 µM (inactive)	19.8 µM (inactive)	18.4 µM (inactive)	22.2 µM (inactive)		18.7 µM (inactive)
O=S(=O)(O)c1c(/N=N/c2c(O)ccc3ccccc23)ccc2ccccc12	> 100 µM (inactive)	> 100 µM (inactive)	> 100 µM (inactive)	> 100 µM (inactive)	48.4 µM (inactive)	> 100 µM (inactive)	> 100 µM (inactive)	> 100 µM (inactive)		55.1 µM (inactive)	> 100 µM (inactive)	> 100 µM (inactive)	> 100 µM (inactive)	> 100 µM (inactive)			> 100 µM (inactive)	93.5 µM (inactive)
Cn1cnc2nc(Cl)nc(NC(C)(C)C(C)(C)O)c21	> 100 µM (inactive)	> 100 µM (inactive)	> 100 µM (inactive)		> 100 µM (inactive)	> 100 µM (inactive)	> 100 µM (inactive)		> 100 µM (inactive)	> 100 µM (inactive)	> 100 µM (inactive)		> 100 µM (inactive)	> 100 µM (inactive)	> 100 µM (inactive)		> 100 µM (inactive)	72.4 µM (inactive)
Cc1c2c(C#N)nccc2c(C)c2c1c1ccccc1n2Cc1ccccc1	> 100 µM (inactive)	3.79 µM (inactive)	> 100 µM (inactive)	> 100 µM (inactive)	> 100 µM (inactive)	> 100 µM (inactive)	> 10 µM (inactive)	> 100 µM (inactive)	> 100 µM (inactive)	> 100 µM (inactive)	> 100 µM (inactive)	> 100 µM (inactive)	> 100 µM (inactive)	> 100 µM (inactive)	> 100 µM (inactive)	6.49 µM (inactive)	> 100 µM (inactive)	
CN(C)CCNC1=C(Cl)C(=O)c2c(O)ccc(O)c2C1=O	1.85 µM (inactive)	2.97 µM (inactive)	1.95 µM (inactive)	1.38 µM (inactive)	2.01 µM (inactive)	2.02 µM (inactive)	2.88 µM (inactive)	1.71 µM (inactive)	1.95 µM (inactive)	2.09 µM (inactive)	1.84 µM (inactive)	6.31 µM (inactive)	2.18 µM (inactive)	1.9 µM (inactive)	1.73 µM (inactive)		1.82 µM (inactive)	1.79 µM (inactive)
CCCC(=O)n1[nH]c(=O)n(-c2ccc(Cl)cc2)c1=O	> 100 µM (inactive)	> 100 µM (inactive)	> 100 µM (inactive)	> 100 µM (inactive)	> 100 µM (inactive)	> 100 µM (inactive)	> 100 µM (inactive)	> 100 µM (inactive)	> 100 µM (inactive)	43.4 µM (inactive)	> 100 µM (inactive)	> 100 µM (inactive)	> 100 µM (inactive)	> 100 µM (inactive)		> 100 µM (inactive)	> 100 µM (inactive)	
CC(C)CN1CN(c2ccccc2)C2(CCN(CC(C)(c3ccc(F)cc3)C3OCCO3)CC2)C1=O (stereo not given)	6.92 µM (inactive)	6.01 µM (inactive)	7.21 µM (inactive)		3.55 µM (inactive)	3.17 µM (inactive)	2.4 µM (inactive)	6.62 µM (inactive)		4.89 µM (inactive)	4.75 µM (inactive)	3.55 µM (inactive)	2.09 µM (inactive)	10.1 µM (inactive)	5.18 µM (inactive)	4.11 µM (inactive)	3.72 µM (inactive)	3.96 µM (inactive)
